Assay [1] has as its system exorbital lacrimal gland-removed rat dry eye model. As to the kind of experiment: Dry eye syndrome (dry eye) model evaluation test. The class given is in vivo. The settings on record: eye drop 5 μL four times a day. On the procedure: In order to evaluate the treatment effect of the present compounds on corneal disorder accompanied by dry eye syndrome (dry eye), a treatment effect on corneal disorder in an exorbital lacrimal gland-removed rat dry eye model was investigated. This model was prepared in accordance with the method of Fujihara, et al. (Invest. Ophthalmol. Vis. Sci., 42(1): 96-100 (2001)). Incidentally, this effect was scored according to the method of Murakami et al. (New Ophthalmologist 21(1): 87-90 (2004)), the extent of corneal disorder was scored and the improvement ratio was calculated from the corneal disorder score of the base agent administered group (control group), the corneal disorder score of the test compound administered group and the corneal disorder score of the normal rat.
A base agent containing a general additive(s) was added to the test compound to prepare test compound suspensions with 0.03% (W/V) and 0.1% (W/V). In addition, a base agent was added to the commercially available drug A to prepare a diluted solution with 0.05% (V/V).
• 1) By using male SD rats, somnopentyl was administered to the rats to apply them general anesthesia, exorbital lacrimal glands were removed, and corneal disorder was induced over 8 weeks thereafter. • 2) The test compound suspension was eye-dropped (instillation dose: 5 μL/time) to both eyes four times a day for 14 days. Incidentally, the base agent was similarly eye-dropped to the administered group (control group), and the commercially available drug A and its diluted solution were similarly eye-dropped. • 3) Fourteen days after the start of eye dropping, the cornea was stained with fluorescein. For each of the upper part, the middle part and the lower part of the cornea, scores of the degree of staining with fluorescein were determined according to the following criteria, and an average value of the total of the scores was calculated. Incidentally, 0.5 was set as an intermediate value between each score of 0, 1, 2 and 3. <<Judgement Standard>>
1: Dyeing is sparse, and the dyed portions of each dot are separated
2: Dyeing is a middle degree and part of the dotted dyed portions is adjacent
3: Dyeing is dense, and the dyed portions of each point are almost adjacent
(Calculation Formula) Corneal disorder improvement ratio (%) of the test compound administered group=(Ao−Ax)/(Ao−An)×100 • Ao: Average value of corneal disorder score of the base agent administered group (control group) • Ax: Average value of corneal disorder score of the test compound administered group • An: Average value of corneal disorder score of normal rat (Test Result and Consideration)

Assay [2] has as its system paracentesis induced intraocular inflammation model of rabbits. Briefly: Anterior eye inflammation model evaluation test. The format is in vivo, rabbit. Conditions: 3% (W/V) suspension, eye dropped 50 μL four times; 120 minutes after primary puncture. On the procedure: In order to evaluate an anti-inflammatory action of the present compound on anterior eye inflammation, an inhibitory effect on a number of infiltrated cells into aqueous humor in a paracentesis induced intraocular inflammation model of rabbits was investigated. Incidentally, this effect was evaluated by calculating an inhibitory ratio from a number of infiltrated cells into aqueous humor in the base agent administered group (control group) and a number of infiltrated cells into aqueous humor in the test compound administered group.
A base agent containing a general additive(s) was added to the test compound to prepare a test compound suspension with 3% (W/V).
• 1) Male JW rabbits underwent local anesthesia with 0.4% oxybuprocaine hydrochloride (trade name: Benoxil ophthalmic solution 0.4%), and about 0.1 mL of anterior aqueous humor was collected by using a syringe for tuberculin so as not to touch the iris to carry out primary puncture, whereby an inflammatory response was induced. • 2) Thirty minutes before the primary puncture, heparin was intravenously administered so as to be about 50 unit/kg. • 3) The test compound suspension was eye dropped (instillation dose: 50 μL/time) to both eyes in total four times, 210 minutes before, 60 minutes before, 15 minutes after, and 90 minutes after the primary puncture. […]

The test system of assay [3] is exorbital lacrimal gland-removed rat dry eye model. Briefly: Dry eye syndrome (dry eye) model evaluation test. The format is in vivo. Conditions: eye drop 5 μL four times a day. The source holds these as a separate data set.

As for `COc1cc(OC[C@H](C)OC(=O)CN(C)C)ccc1-c1ccc2c(c1COc1cc(F)ccc1C)N(C)C(=O)C(C)(C)N2` [Compound 11-1, (S)-7-[4-[2-(N,N-dimethylaminoacetoxy)propyl]oxy-2-methoxyphenyl]-8-(5-fluoro-2-methylphenoxymethyl)-1,3,3-trimethyl-3,4-dihydro-1H-quinoxalin-2-one], the “Corneal disorder improvement ratio (%) After 14 days eye dropping” value in assay [1] (0.03%) is 33%; in assay [1] (0.1%), 64%. Moreover, the “inhibitory ratio (%) of the number of infiltrated cells into aqueous humor” value in assay [2] was found to be 37%. The “Corneal disorder improvement ratio (%) After 7 days eye dropping” value in assay [3] (0.03%) is 35%; in assay [3] (0.1%), 44%.

For the origin of these results see patent publication US10189796B2, “[4-(1,3,3-trimethyl-2-oxo-3,4-dihydro-1H-quinoxalin-7-yl)phenoxy]ethyloxy compound or salt thereof” (SANTEN PHARMACEUTICAL CO., LTD., priority 2015, dated 2019).
